Reference: patent publication US20210395256A1, “TYROSINE KINASE INHIBITORS, COMPOSITIONS AND METHODS THERE OF” (Betta Pharmaceuticals Co., Ltd., priority 2018, published 2021)
Where two headings read alike, the source gives them in different places.

What was measured:
[1] = Liver microsomes metabolic stability assay, mouse; format: in vitro ADME; settings: male, mouse liver microsomes 0.5 mg/mL, 37° C.; for half-life at 2 μM: read-out: t1/2 Mouse
Procedure, shortened: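 Pooled human, male rat or male mouse liver microsomes (0.5 mg/mL final) incubated at 37° C with 2 μM compound, with or without 1 mM NADPH. Samples at 0-60 min quenched in cold acetonitrile and analyzed by LC-MS/MS in duplicate. t1/2 derived from ln(% remaining) vs time slope, converted to CLint (μL/min/mg).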

TrkA kinase = TrkA kinase (Homo sapiens, UniProt P04629); assay: TrkA kinase assay (mobility shift assay); format: biochemical; settings: read-out: Trk A Kinase IC50
Procedure, shortened: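 Caliper mobility-shift readout of FAM-labelled peptide conversion by TrkA in 50 mM HEPES pH 7.5, 0.0015% Brij-35, with ATP; enzyme preincubated 10 min with compound (10-point dilution), reaction at 28 °C, EDTA stop. Inhibition relative to DMSO and no-enzyme controls; IC50 by four-parameter fit.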

Chain of TrkA kinase (P04629 33-796): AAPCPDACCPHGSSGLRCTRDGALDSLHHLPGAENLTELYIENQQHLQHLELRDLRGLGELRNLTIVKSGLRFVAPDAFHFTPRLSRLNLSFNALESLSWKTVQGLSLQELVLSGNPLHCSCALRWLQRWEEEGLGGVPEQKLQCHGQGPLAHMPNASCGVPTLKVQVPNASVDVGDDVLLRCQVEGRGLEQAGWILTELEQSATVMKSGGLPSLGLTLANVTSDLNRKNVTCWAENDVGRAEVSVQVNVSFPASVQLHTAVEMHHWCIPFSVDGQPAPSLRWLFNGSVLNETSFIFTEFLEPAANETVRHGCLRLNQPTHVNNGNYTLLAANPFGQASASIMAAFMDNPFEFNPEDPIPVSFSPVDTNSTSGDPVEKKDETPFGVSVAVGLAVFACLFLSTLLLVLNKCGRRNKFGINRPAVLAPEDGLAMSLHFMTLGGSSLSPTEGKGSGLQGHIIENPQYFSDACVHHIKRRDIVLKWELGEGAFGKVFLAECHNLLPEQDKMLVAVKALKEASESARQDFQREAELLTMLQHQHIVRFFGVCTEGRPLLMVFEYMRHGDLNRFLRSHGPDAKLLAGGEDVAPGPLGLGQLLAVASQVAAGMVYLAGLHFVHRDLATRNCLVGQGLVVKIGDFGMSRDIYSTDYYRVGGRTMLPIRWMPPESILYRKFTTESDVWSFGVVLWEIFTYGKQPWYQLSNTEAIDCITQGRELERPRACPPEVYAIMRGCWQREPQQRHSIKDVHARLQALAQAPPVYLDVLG

Compound | microsomal CLint at 2 μM [1] | half-life at 2 μM [1] | IC50 (TrkA kinase; numeric values) | IC50 (TrkA kinase; class symbols)
Cc1nnc(-c2cnn3ccc(N4CCCC4c4cc(F)ccc4F)nc23)[nH]1 (centres unmarked) [Comparative compound A, 5-[2-(2,5-Difluorophenyl)pyrrolidin-1-yl]-3-(5-methyl-1H-1,2,4-triazol-3-yl)pyrazolo[1,5-a]pyrimidine, reference compound] | 214 µL/min/mg | 6.47 min | – | –
C[C@H](O)c1nnc(-c2cnn3ccc(N4CCC[C@@H]4c4cc(F)ccc4F)nc23)[nH]1 [Compound 4, (S)-1-(5-(5-((R)-2-(2,5-difluorophenyl)pyrrolidin-1-yl)pyrazolo[1,5-a]pyrimidin-3-yl)-4H-1,2,4-triazol-3-yl)ethan-1-ol] | 96.4 µL/min/mg | 14.4 min | 1.37 nM | –
CC(C)(O)c1nnc(-c2cnn3ccc(N4CCC[C@@H]4c4cc(F)ccc4F)nc23)[nH]1 [Compound 7, (R)-2-(5-(5-(2-(2,5-difluorophenyl)pyrrolidin-1-yl)pyrazolo[1,5-a]pyrimidin-3-yl)-4H-1,2,4-triazol-3-yl)propan-2-ol] | 19.4 µL/min/mg | 71.5 min | 0.68 nM | –
C[C@H](N)c1nnc(-c2cnn3ccc(N4CCC[C@@H]4c4cc(F)ccc4F)nc23)[nH]1 [Compound 11, (S)-1-(5-(5-((R)-2-(2,5-difluorophenyl)pyrrolidin-1-yl)pyrazolo[1,5-a]pyrimidin-3-yl)-4H-1,2,4-triazol-3-yl)ethan-1-amine] | 61.9 µL/min/mg | – | – | ≤ 10 nM
OC1(c2nnc(-c3cnn4ccc(N5CCC[C@@H]5c5cc(F)ccc5F)nc34)[nH]2)CCC1 [Compound 23, (R)-1-(5-(5-(2-(2,5-difluorophenyl)pyrrolidin-1-yl)pyrazolo[1,5-a]pyrimidin-3-yl)-4H-1,2,4-triazol-3-yl)cyclobutan-1-ol] | 48.6 µL/min/mg | 28.5 min | 2.3 nM | –
CC(C)(O)Cc1nnc(-c2cnn3ccc(N4CCC[C@@H]4c4cc(F)ccc4F)nc23)[nH]1 [Compound 30, (R)-1-(5-(5-(2-(2,5-difluorophenyl)pyrrolidin-1-yl)pyrazolo[1,5-a]pyrimidin-3-yl)-4H-1,2,4-triazol-3-yl)-2-methylpropan-2-ol] | 35.6 µL/min/mg | 38.9 min | 4.9 nM | –
OC1CC(c2nnc(-c3cnn4ccc(N5CCC[C@@H]5c5cc(F)ccc5F)nc34)[nH]2)C1 (stereo partly drawn) [Compound 31, (R)-3-(5-(5-(2-(2,5-difluorophenyl)pyrrolidin-1-yl)pyrazolo[1,5-a]pyrimidin-3-yl)-4H-1,2,4-triazol-3-yl)cyclobutan-1-ol] | 37 µL/min/mg | 37.4 min | 2.3 nM | –
C[C@@H](CO)c1nnc(-c2cnn3ccc(N4CCC[C@@H]4c4cc(F)ccc4F)nc23)[nH]1 [Compound 39, (R)-2-(5-(5-((R)-2-(2,5-difluorophenyl)pyrrolidin-1-yl)pyrazolo[1,5-a]pyrimidin-3-yl)-4H-1,2,4-triazol-3-yl)propan-1-ol] | 41.4 µL/min/mg | 33.5 min | 1.26 nM | –
OC(c1nnc(-c2cnn3ccc(N4CCC[C@@H]4c4cc(F)ccc4F)nc23)[nH]1)C(F)(F)F (stereo partly drawn) [Compound 47, 1-(5-(5-((R)-2-(2,5-difluorophenyl)pyrrolidin-1-yl)pyrazolo[1,5-a]pyrimidin-3-yl)-4H-1,2,4-triazol-3-yl)-2,2,2-trifluoroethan-1-ol] | – | – | 3.23 nM | –
